We go through one sequence from patent US20090170762A1, “Treatment of Diabetes Related Obesity” (UUTech Limited, priority 2005, published 2009).

Ends that are not written are not given here.

Test [1] relates to adult ob/ob mice. Conditions: daily 11 days (Gault 2005); cited from earlier work.
Test [2] has as its system Swiss TO mice. In words: Daily (Pro3)GIP for 90 days in normal (TO) mice fed high fat, cafeteria, high carbohydrate or normal diets. Particulars: for Glycated Hemoglobin (%): 25 nmol/kg bw/day. The format is in vivo, mouse. How it is done: Young obese diabetic (ob/ob) mice derived from the colony maintained at Aston University, UK (Bailey, C. J. et al., 1982, Int. J. Obes. 6:11-21) were used at 5-7 weeks of age. Normal lean control mice from the same colony were used in comparative experiments (See Example 6, below). Animals were age-matched, divided into groups and housed individually in an air-conditioned room at 22±2° C. with a 12 hours light:12 hours dark cycle (08:00-20:00 hours). Drinking water and a standard rodent maintenance diet (Trouw Nutrition, Cheshire, UK) were freely available. In a separate experiment, Swiss Tylers Original (TO) mice purchased from Harlan Ltd. (Bicester, UK) were used at 5-7 weeks of age. Animals were housed as for ob/ob mice and given drinking water ad libitum. Normal TO mice were allowed free access to fed high fat diet (45% fat, 20% protein, 35% carbohydrate, 26.15 MJ/kg), high carbohydrate diet (10% fat, 20% protein, 70% carbohydrate, 18.80 MJ/kg) (Special Diets Service, Witham, Essex, UK), cafeteria diet (corresponding to approximately 33% fat, 19% protein, 48% carbohydrate, 16.39 MJ/kg) or normal rodent maintenance diet (10% fat, 30% protein, 60% carbohydrate; 14.2 MJ/kg, Trouw Nutrition, Cheshire, UK). The cafeteria diet comprised 6 daily rotations of 2 palatable food items per day (2 from: tuna, peanut butter, crisps, chocolate biscuits, madera cake, chocolate, luncheon meat, sausages, corned beef, cheese, marzipan). All animal experiments were carried out in accordance with the UK Animals (Scientific Procedures) Act 1986.
Food intake and body weight were recorded daily while plasma glucose and insulin concentrations were monitored at intervals of 3-6 days. Whole blood for the measurement of glycated hemoglobin was taken on day 60. In addition, plasma samples for measurement of cholesterol, circulating triglycerides, HDL-cholesterol (HDL-C) and LDL-cholesterol (LDL-C) were taken on day 60. […] Mice fasted for 18 hours were used to examine the metabolic response to 15 minutes feeding on day 60. In a separate series, pancreatic tissues were excised at the end of the 60-day treatment period and processed for immunohistochemistry or measurement of insulin following extraction with 5 ml/g of ice-cold acid ethanol (750 ml ethanol, 235 ml water, 15 ml concentrated HCl). Blood samples taken from the cut tip of the tail vein of conscious mice at the times indicated in the Figures were immediately centrifuged using a Beckman microcentrifuge (Beckman instruments, UK) for 30 seconds at 13,000×g. The resulting plasma was then aliquoted into fresh Eppendorf tubes and stored at −20° C. prior to glucose and insulin determinations. Normal control mice from the same genetic background were used for comparative purposes. […] Body weights were recorded daily and blood for determination of glycated hemoglobin was collected at end of study period.
Plasma glucose was assayed by an automated glucose oxidase procedure (Stevens, J. F., 1971, Clin. Chem. Acta 32:199-201) using a Beckman Glucose Analyzer II (Beckman Instruments, Galway, Ireland). Plasma and pancreatic insulin were assayed by a modified dextran-coated charcoal radioimmunoassay (Flatt, P. R., Bailey, C. J., 1981, Diabetologia 20:573-577). Plasma triglyceride and cholesterol levels were measured using a Hitachi Automatic Analyser 912 (Boehringer Mannheim, Germany). Glycated hemoglobin was determined using a commercially available kit purchased from Chirus Ltd. (Watford, UK).
Normal mice were fed the different diets indicated above ad libitum from 4-5 weeks of age. Treated groups of mice received intraperitoneal injection of ProGIP (25 nmoles/kg body weight) each day.

Test [3] has as its system Swiss TO mice. In words: Daily (Pro3)GIP for 60 days in Swiss TO mice previously fed high fat diet for 160 days. Particulars: high fat diet 160 days before, 25 nmoles/kg/day i.p. 60 days. It is filed as in vivo, mouse. How it is done:
Parameters were measured at 3-4 daily intervals during a 60 day treatment period, which was preceded by a 160 days of feeding high fat diet. Mice were initially recruited into the study at 6-8 weeks of age. Control animals received standard rodent maintenance diet, 12.99 kj/g, (Harlan, UK) ad libitum. The animals were maintained on the respective diet for the duration of the study. High fat diet comprised 45% fat, 20% protein and 35% carbohydrate (26.15 kj/g) and was available ad libitum. (Special Diet Services, Essex, UK).
The results are shown in FIGS. 15A-B, which are a set of line graphs. Normal mice were fed the high fat diet indicated above ad libitum from 6-8 weeks of age. Treated groups of mice received intraperitoneal injection of ProGIP (25 nmoles/kg body weight) each day for a further 60 days while receiving the same high fat diet.

The mark [4] stands for this setting: normal mice fed high fat or cafeteria diets, 90 days.

With “YAPGTFISDYSIAMDKIHQQDFVNWLLAQKGKKNDWKHNITQ [(Pro^3)GIP]”, the “features of type 2 diabetes” value in test [1] is “improved many of the characteristic features of type 2 diabetes”. Besides, the “Glycated Hemoglobin (%)” value in test [2] (Cafeteria diet, 90 days) is recorded as 4.0 ± 0.32 %; in test [2] (High Carbohydrate diet, 90 days), 4.3 ± 0.12%; in test [2] (High Fat diet, 90 days), 4.0 ± 0.21 %; in test [2] (Normal diet, 90 days) it was 3.9 ± 0.14%. In addition, the “body weight and glycated hemoglobin (parameters measured)” value in test [2] (high carbohydrate or normal diets) is “did not affect”. In addition, the “body weight gain induced by excessive energy intake” value in test [2] (high fat diet, lesser extent cafeteria diet) was “counters body weight gain”. For the same sequence, the “decrease in body weight” value in test [2] (setting [4]) is given as “up to 20%”. Further, in test [2] (setting [4]), the “decrease in glycated hemoglobin” value is reported as “greater than 1%”. Moreover, the body weight result in test [3] is “promotes body weight loss”. Further, the energy intake entry in test [3] is “not associated with significant decrease in energy intake”.
